Laboratory results taken from patent US7968601B2, “Adamantyl acetamides as 11-β hydroxysteroid dehydrogenase inhibitors” (Janssen Pharmaceutica N.V., priority 2002, dated 2011).
Structures can show the parent of a compound that is named as a salt.

Key:
11b-HSD1 [1] = target: 11b-HSD1 (Homo sapiens, UniProt P28845); assay: Enzymatic assay, 11b-HSD1 reductase activity (conversion of cortisone into cortisol); type: biochemical; conditions: pIC50 scored 1-3, read-out: [C1] HSD1-prot Reduct Score
Method: The effects of compounds on 11b-HSD1 dependent conversion of cortisone into cortisol (reductase activity) was studied in a reaction mixture containing 30 mM Tris-HCl buffer pH 7.2, 180 μM NADPH, 1 mM EDTA, 2 μM cortisone, 1 μl drug and/or solvent and 11 μg recombinant protein in a final volume of 100 μl.
(§1) All incubations were performed for 45 min at 37 C in a water bath. The reaction was stopped by adding 100 μl acetonitrile containing 20 μg corticosterone as internal standard. After centrifugation, the product formation was analysed in the supernatant by HPLC on a Hypersyl BDS-C18 column using 0.05 mM ammonium acetate/methanol (50/50) as solvent. In all of the aforementioned assays, the drugs to be tested were taken from a stock solution and tested at a final concentration ranging from […] to 3.10^−9M. From the thus obtained dose response curves, the pIC50 value was calculated and scored as follows; Score 1=pIC50 value<5, Score 2=pIC50 value in the range of 5 to 6, Score 3=pIC50 value>6. (in this table NT stands for Not Tested).

11b-HSD2 [2] = target: T1, 11b-HSD2 (Homo sapiens, UniProt P80365); assay: Enzymatic assay, 11b-HSD2 dependent dehydrogenase activity; type: biochemical; conditions: 11b-HSD2 dehydrogenase activity, pIC50 scored 1-3, read-out: [C1] HSD2 prot Dehydro Score
T1 sequence (P80365 1-405): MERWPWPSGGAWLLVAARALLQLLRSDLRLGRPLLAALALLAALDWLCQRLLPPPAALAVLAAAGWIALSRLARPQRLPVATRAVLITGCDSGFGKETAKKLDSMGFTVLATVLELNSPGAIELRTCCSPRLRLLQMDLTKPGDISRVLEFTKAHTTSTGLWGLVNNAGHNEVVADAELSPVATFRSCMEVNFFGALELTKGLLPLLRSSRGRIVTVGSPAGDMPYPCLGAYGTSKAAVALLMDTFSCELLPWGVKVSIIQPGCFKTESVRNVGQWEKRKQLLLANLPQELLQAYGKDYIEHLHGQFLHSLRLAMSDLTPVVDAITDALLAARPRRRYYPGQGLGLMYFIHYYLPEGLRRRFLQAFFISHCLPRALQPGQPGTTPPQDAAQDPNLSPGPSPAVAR
Method: The effects on the 11b-HSD2 dependent dehydrogenase activity was studied in a reaction mixture containing 0.1M sodium phosphate buffer pH 7.5, 300 μM NAD, 100 nM cortisol (of which 2 nM is 3H-radio labelled), 1 μl drug and/or solvent and 2.5 μg recombinant protein in a final volume of 100 μl.
as §1

11b-HSD2 [3] = target: T1, 11b-HSD2; assay: Cellular assay, 11b-HSD2 activity in HepG2 cells; type: cell-based; design: endogenous in cells; host or cells: HepG2 (ATCC HB-8065); conditions: 4 hour pre-incubation, pIC50 scored 1-3, read-out: [C2] HSD2 cellular HepG2 Score
Method: The effects on 11b-HSD2 activity was studied in HepG2 and LCC-PK1-cells HepG2-cells (ATCC HB-8065) were seeded in 12 well plates at a density of 100,000 cells/ml and grown at 37 C in a humidified 5% CO2 atmosphere in MEM-Rega-3 medium supplemented with 10% heat inactivated foetal calf serum, 2 mM L-glutamine and sodium bicarbonate). Medium was refreshed twice a week. Pig kidney cells (LCC-PK1, ATCC CRL-1392) were seeded at a density of 150,000 cells/ml in 12 well plates and grown at 37 C in a humidified 5% CO2 atmosphere in Medium 199 supplemented with Earls modified salt solution, 100 U/ml penicillin, 100 μg/ml streptomycin and 10% foetal calf serum. Medium was refreshed twice a week. Twenty four hours prior to the onset of the experiment, medium was changed by medium containing 10% charcoal stripped foetal calf serum.
Following a 4 hour pre-incubation with test compound, 0.5 μCi ^3H-cortisol or corticosterone, was added to the cultures. One hour later, the medium was extracted on Extrelut^3-columns with 15 ml diethyl ether and the extract was analysed by HPLC as described above.
(§2) As for the enzymatic assays, the compounds to be tested were taken from a stock solution and tested at a final concentration ranging from […] to 3.10^−9M. From the thus obtained dose response curves, the pIC50 value was calculated and scored as follows; Score 1=pIC50 value<5, Score 2=pIC50 value in the range of 5 to 6, Score 3=pIC50 value>6. (in this table NT stands for Not Tested).

11b-HSD1 [4] = target: T2, 11b-HSD1 (Mus musculus, UniProt P50172); assay: Cellular assay, 11b-HSD1 activity in differentiated 3T3-L1 cells; type: cell-based; conditions: 4 hour pre-incubation, pIC50 scored 1-3, read-out: [C2] HSD1 cellular 3T3-L1 Score
T2 construct: endogenous in cells; host or cells: 3T3-L1 (ATCC-CL-173), differentiated into adipocytes
Method: The effects on 11b-HSD1 activity was measured in differentiated 3T3-L1 cells and rat hepatocytes.
Mouse fibroblast 3T3-L1 cells (ATCC-CL-173) were seeded at a density of 16500 cells/ml in 12 well plates and grown for 7 days in DMEM medium (supplemented with 10% heat inactivated foetal calf serum, 2 mM glutamine and 25 mg gentamycin) at 37 C in a humidified 5% CO2 atmosphere. Medium was refreshed twice a week. Fibroblasts were differentiated into adipocytes at 37 C in a 5% CO2 humidified atmosphere in growth medium containing 2 μg/ml insulin, 55 μg/ml IBMX and 39.2 μg/ml dexamethasone.
Following a 4 hour pre-incubation with test compound, 0.5 μCi ^3H-cortisone or dehydrocorticosterone, was added to the cultures. One hour later, the medium was extracted on Extrelut^3-columns with 15 ml diethyl ether and the extract was analysed by HPLC as described above.
as §2

T2 sequence (P50172 whole entry): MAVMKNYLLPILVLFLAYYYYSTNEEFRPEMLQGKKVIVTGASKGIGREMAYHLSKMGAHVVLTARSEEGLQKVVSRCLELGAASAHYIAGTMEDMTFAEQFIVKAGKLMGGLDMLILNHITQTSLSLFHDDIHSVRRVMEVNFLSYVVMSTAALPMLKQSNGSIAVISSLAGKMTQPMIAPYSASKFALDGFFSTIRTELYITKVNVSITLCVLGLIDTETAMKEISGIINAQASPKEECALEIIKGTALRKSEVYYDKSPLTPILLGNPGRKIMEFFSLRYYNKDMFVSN
Chain of 11b-HSD1 (Homo sapiens, UniProt P28845) (P28845 whole entry): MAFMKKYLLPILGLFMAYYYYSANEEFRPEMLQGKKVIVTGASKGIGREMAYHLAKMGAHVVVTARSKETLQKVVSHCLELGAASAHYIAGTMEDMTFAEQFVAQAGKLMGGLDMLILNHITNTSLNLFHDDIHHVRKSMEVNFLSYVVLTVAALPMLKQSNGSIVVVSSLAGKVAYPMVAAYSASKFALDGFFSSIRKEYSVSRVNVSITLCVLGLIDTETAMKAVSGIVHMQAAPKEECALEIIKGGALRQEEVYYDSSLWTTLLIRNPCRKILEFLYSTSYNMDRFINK

O=C(NC1C2CC3CC(C2)CC1C3)N1CCc2ccccc2C1 (stereo not shown) [Compound 201]
melting point: 145 to 147 °C

Cc1cccc(C(C)(C)C(=O)N[C@H]2[C@@H]3CC4C[C@H]2C[C@](F)(C4)C3)c1 [Compound 187]
melting point: 115 to 117 °C

CC(C)(C(=O)N[C@H]1[C@@H]2CC3C[C@H]1C[C@](F)(C3)C2)c1cccc(OCC(=O)O)c1 [Compound 227]
melting point: 210 to 215 °C

O=C(N[C@@H]1[C@@H]2CC3C[C@H]1C[C@](O)(C3)C2)N1CCCc2ccccc21 [Compound 219]
melting point: 185 to 188 °C

O=C(O)COc1cccc2c1CCN(C(=O)NC1C3CC4CC(C3)CC1C4)C2 (stereo not shown) [Compound 257]
melting point: 215 to 220 °C

COc1cccc(C(C)(C)C(=O)N[C@@H]2[C@@H]3CC4C[C@H]2C[C@](F)(C4)C3)c1 [Compound 188]
melting point: 110 to 112 °C

COc1cccc(C(C)(C)C(=O)N[C@@H]2[C@@H]3CC4C[C@H]2C[C@](O)(C4)C3)c1 [Compound 155]
melting point: 165 to 167 °C

O=C(NC1C2CC3CC(C2)CC1C3)N1CCCc2ccccc21 (stereo not shown) [Compound 200]
melting point: 163 to 165 °C

CC(C)(C(=O)N[C@H]1[C@@H]2CC3C[C@H]1C[C@](F)(C3)C2)c1cccc(OCCN2CCOCC2)c1 (as salt: HCl) [Compound 228]
melting point: 208 to 210 °C

O=C(N[C@H]1[C@@H]2CC3C[C@H]1C[C@](O)(C3)C2)N1CCCc2ccccc21 [Compound 218]
melting point: 170 to 172 °C

COc1ccc(C(C)(C)C(=O)NC2C3CC4CC(C3)CC2C4)cc1OC (stereo not shown) [Compound 86]
IC50 (11b-HSD1 [1]): > 10 µM
IC50 (11b-HSD2 [2]): > 10 µM
IC50 (11b-HSD2 [3]): > 10 µM
IC50 (11b-HSD1 [4]): < 1 µM

O=C(NC1C2CC3CC(C2)CC1C3)C1=CCCc2c(Br)cccc21 (stereo not shown) [Compound 223]
IC50 (11b-HSD1 [1]): < 1 µM
IC50 (11b-HSD2 [2]): > 10 µM
IC50 (11b-HSD2 [3]): > 10 µM
IC50 (11b-HSD1 [4]): < 1 µM

Cc1cc(C)c2c(c1)C(C(=O)NC1C3CC4CC(C3)CC1C4)=CCC2 (stereo not shown) [Compound 181]
IC50 (11b-HSD1 [1]): > 10 µM
IC50 (11b-HSD2 [2]): > 10 µM
IC50 (11b-HSD2 [3]): > 10 µM
IC50 (11b-HSD1 [4]): < 1 µM

CC(C)(C(=O)N[C@H]1[C@@H]2CC3C[C@H]1C[C@](O)(C3)C2)c1cccc(OCCN2CCOCC2)c1 [Compound 158]
IC50 (11b-HSD1 [1]): > 10 µM
IC50 (11b-HSD2 [2]): > 10 µM
IC50 (11b-HSD2 [3]): > 10 µM
IC50 (11b-HSD1 [4]): < 1 µM

O=C(NC1C2CC3CC(C2)CC1C3)C1CCc2ccccc21 (stereo not shown) [Compound 197]
IC50 (11b-HSD1 [1]): > 10 µM
IC50 (11b-HSD2 [2]): > 10 µM
IC50 (11b-HSD2 [3]): > 10 µM
IC50 (11b-HSD1 [4]): < 1 µM

CN1CCN(CCOc2cccc(C(C)(C)C(=O)NC3C4CC5CC(C4)CC3C5)c2)CC1 (stereo not shown) [Compound 199]
melting point: 165 to 170 °C

CC(C)(C(=O)N[C@H]1[C@@H]2CC3C[C@H]1C[C@](O)(C3)C2)c1cccc(OCCN2CCOCC2)c1 (as salt: HCl) [Compound 158]
melting point: 155 to 160 °C

COc1ccc2c(c1)C(C(=O)NC1C3CC4CC(C3)CC1C4)CCC2 (stereo not shown) [Compound 203]
IC50 (11b-HSD1 [1]): > 10 µM
IC50 (11b-HSD2 [2]): > 10 µM
IC50 (11b-HSD2 [3]): > 10 µM
IC50 (11b-HSD1 [4]): < 1 µM

CC(C)(C(=O)NC1C2CC3CC(C2)CC1C3)c1cccc(CCN2CCOCC2)c1 (stereo not shown) [Compound 191]
IC50 (11b-HSD1 [1]): < 1 µM
IC50 (11b-HSD2 [2]): > 10 µM
IC50 (11b-HSD2 [3]): > 10 µM
IC50 (11b-HSD1 [4]): < 1 µM

CC(C)(C(=O)NC1CCCCCCC1)c1ccccc1 [Compound 46]
IC50 (11b-HSD1 [1]): > 10 µM
IC50 (11b-HSD2 [2]): > 10 µM
IC50 (11b-HSD2 [3]): > 10 µM
IC50 (11b-HSD1 [4]): < 1 µM

CC(C)(C(=O)NC1C2CC3CC(C2)CC1C3)c1ccc2ccccc2c1 (stereo not shown) [Compound 138]
IC50 (11b-HSD1 [1]): > 10 µM
IC50 (11b-HSD2 [2]): > 10 µM
IC50 (11b-HSD2 [3]): > 10 µM
IC50 (11b-HSD1 [4]): < 1 µM

CC(C)(C(=O)NC1C2CC3CC(C2)CC1C3)c1cccc(OCC(=O)O)c1 (stereo not shown) [Compound 6]
IC50 (11b-HSD1 [1]): 1 to 10 µM
IC50 (11b-HSD2 [2]): > 10 µM
IC50 (11b-HSD2 [3]): > 10 µM
IC50 (11b-HSD1 [4]): < 1 µM

CCCc1cccc(C(C)(C)C(=O)NC2C3CC4CC(C3)CC2C4)c1 (stereo not shown) [Compound 166]
IC50 (11b-HSD1 [1]): < 1 µM
IC50 (11b-HSD2 [2]): > 10 µM
IC50 (11b-HSD2 [3]): > 10 µM
IC50 (11b-HSD1 [4]): < 1 µM

O=C(NC1C2CC3CC(C2)CC1C3)C1CCCCc2ccccc21 (stereo not shown) [Compound 169]
IC50 (11b-HSD1 [1]): < 1 µM
IC50 (11b-HSD2 [2]): > 10 µM
IC50 (11b-HSD2 [3]): > 10 µM
IC50 (11b-HSD1 [4]): < 1 µM

O=C(NC1C2CC3CC(C2)CC1C3)C1CCc2ccccc2C1 (stereo not shown) [Compound 224]
IC50 (11b-HSD1 [1]): < 1 µM
IC50 (11b-HSD2 [2]): > 10 µM
IC50 (11b-HSD2 [3]): > 10 µM
IC50 (11b-HSD1 [4]): < 1 µM

O=C(N[C@H]1[C@@H]2CC3C[C@H]1C[C@](F)(C3)C2)N1CCCc2ccccc21 [Compound 226]
melting point: 182 to 184 °C

COc1cccc(C(C)(C)C(=O)N[C@H]2[C@@H]3CC4C[C@H]2C[C@](F)(C4)C3)c1 [Compound 189]
melting point: 105 to 107 °C

COc1cc(C)cc(C(C)(C)C(=O)NC2C3CC4CC(C3)CC2C4)c1 (stereo not shown) [Compound 210]
IC50 (11b-HSD1 [1]): > 10 µM
IC50 (11b-HSD2 [2]): > 10 µM
IC50 (11b-HSD2 [3]): > 10 µM
IC50 (11b-HSD1 [4]): < 1 µM

CC(C)(C(=O)NC1C2CC3CC(C2)CC1C3)c1ccc(F)cc1 (stereo not shown) [Compound 41]
IC50 (11b-HSD1 [1]): < 1 µM
IC50 (11b-HSD2 [2]): > 10 µM
IC50 (11b-HSD2 [3]): > 10 µM
IC50 (11b-HSD1 [4]): < 1 µM

CNc1cccc(C(C)(C)C(=O)NC2C3CC4CC(C3)CC2C4)c1 (stereo not shown) [Compound 77]
IC50 (11b-HSD1 [1]): > 10 µM
IC50 (11b-HSD2 [2]): 1 to 10 µM
IC50 (11b-HSD2 [3]): > 10 µM
IC50 (11b-HSD1 [4]): < 1 µM

CN(C)c1ccc(C(C)(C)C(=O)NC2C3CC4CC(C3)CC2C4)cc1 (stereo not shown) [Compound 52]
IC50 (11b-HSD1 [1]): > 10 µM
IC50 (11b-HSD2 [2]): > 10 µM
IC50 (11b-HSD2 [3]): > 10 µM
IC50 (11b-HSD1 [4]): < 1 µM
